Data published in patent publication US4122179A, “Acid addition salts of vincamine and apovincamine” (priority 1976, dated 1978).

Experiments:
Solubility = assay type: physicochemical; conditions: qualitative; for solubility in alcohol: alcohol (ethyl alcohol)
vertebral arteria = experiment: Cerebral vasodilating activity: hematic flow at the vertebral arteria after i.v. administration; assay type: in vivo; conditions: i.v. (femoral vein), 5 mg/kg of vincamine/apovincamine, anesthetized dog, 4 animals per compound; 5 mg/kg
Protocol: (§1) For the compounds of the present invention a number of pharmacological and pharmacokinetic tests have been carried out. […] As regards the pharmacological and pharmacodynamic activity, it has been studied on the percent variations of the hematic flow, as recorded at the vertebral arteria in the dog after administration of the tested compounds. As regards the pharmacokinetic tests, the compounds were administered per oral route to the Wistar rat, and the hematic levels at different times from the administration were measured.
The cerebral vasodilating activity was studied in the anestetized dog, by measuring, by means of Statham periarterial electromagnetic flowmeters, the hematic flow at the level of the […] which, in such animal species, constitutes the greatest blood supply to the brain.
The resuls are reported in the TABLE 2 (last column) as the percent variations of the flow measured at the level of the ledt vertebral arteria after the i.v. administration of the several compounds to be tested to groups of 4 animals for each compound. The results also confirm that the compounds of the invention are all endowed with a vasodilating activity at the level of the cerebral circulus, such an action being, for some compounds, much more remarkable than that of vincamine and apovincamine.

[1] = LD50 / acute toxicity, intraperitoneal route; assay type: in vivo; conditions: i.p.; for Toxicity (Gleason): Gleason class in words, classes not defined
[2] = Hematic levels at different times after oral administration (absorption); assay type: in vivo, Wistar rat; conditions: 100 mg/kg expressed as vincamine/apovincamine, 5% carboxymethyl cellulose suspension, 100 mg/kg
Protocol: as §1
For the evaluation of the absorption, all the compounds have been orally administered at the dosage of 100 mg/kg, expressed as vincamine and apovincamine, in form of a suspension in a 5% carboxymethyl cellulose solution.
The absorption was determined by evaulating the hematic levels at the following times (minutes) : 0, 30, 120, 240, 480, 10 hours and 12 hours, in order also to assess the time from the administration (max conc.time) the maximum absorption occurred.
The vincamine and apovincamine concentrations were assessed by chromatographic method.
For the evaluation of the prolonged action of the salts and of the adducts of vincamine and apovincamine the following criterium was adopted; as derivatives having a long-acting effect, there are considered those which, 120 minutes after the administration, show hematic levels higher than those obtained with vincamine and apovincamine.

With `CC[C@]12CCCN3CCc4c(n(c5ccccc45)[C@@](O)(C(=O)OC)C1)[C@@H]32` [Example 6.a, Vincamine 2,5-dihydroxybenzoate] the solubility in alcohol (Solubility) was “insoluble”, the solubility in water (Solubility) was “insoluble” and the “% increase (percent variation of hematic flow, left vertebral arteria)” value (vertebral arteria) was 28.0%. For the same compound, the LD50 [1] was 800 mg/kg, the “Toxicity (Gleason)” value [1] was “modest” and the Max. conc. time [2] was 120 min.

In the case of `CC[C@@]12C=C(C(=O)OC)n3c4c(c5ccccc53)CCN(CCC1)[C@H]42` [Example 6.b, Apovincamine 2,5-dihydroxybenzoate], the solubility in alcohol (Solubility) is reported as “insoluble”, the solubility in water (Solubility) is reported as “insoluble” and the “% increase (percent variation of hematic flow, left vertebral arteria)” value (vertebral arteria) is reported as 30.9%. For the same compound, the LD50 [1] was 750 mg/kg, the “Toxicity (Gleason)” value [1] was “modest” and the Max. conc. time [2] was 240 min.

In the case of `CC[C@]12CCCN3CCc4c(n(c5ccccc45)[C@@](O)(C(=O)OC)C1)[C@@H]32` [Example 7.a, Vincamine 3,5-dihydroxybenzoate], the solubility in alcohol (Solubility) is reported as “insoluble”, the solubility in water (Solubility) is reported as “insoluble” and the “% increase (percent variation of hematic flow, left vertebral arteria)” value (vertebral arteria) is reported as 26.3%. For the same compound, the LD50 [1] was 850 mg/kg, the “Toxicity (Gleason)” value [1] was “modest” and the Max. conc. time [2] was 240 min.

In the case of `CC[C@@]12C=C(C(=O)OC)n3c4c(c5ccccc53)CCN(CCC1)[C@H]42` [Example 7.b, Apovincamine 3,5-dihydroxybenzoate], the solubility in alcohol (Solubility) is reported as “soluble”, the solubility in water (Solubility) is reported as “insoluble” and the “% increase (percent variation of hematic flow, left vertebral arteria)” value (vertebral arteria) is reported as 26.0%. The LD50 [1] was 750 mg/kg, the “Toxicity (Gleason)” value [1] was “modest” and the Max. conc. time [2] was 240 min.

With `CC[C@]12CCCN3CCc4c(n(c5ccccc45)[C@@](O)(C(=O)OC)C1)[C@@H]32` [Example 8.a, Vincamine p-toluensulfonate] the solubility in alcohol (Solubility) was “soluble”, the solubility in water (Solubility) was “soluble” and the “% increase (percent variation of hematic flow, left vertebral arteria)” value (vertebral arteria) was 25.1%. For the same compound, the LD50 [1] was 1250 mg/kg, the “Toxicity (Gleason)” value [1] was “light” and the Max. conc. time [2] was 480 min.

In the case of `CC[C@@]12C=C(C(=O)OC)n3c4c(c5ccccc53)CCN(CCC1)[C@H]42` [Example 8.b, Apovincamine p-toluensulfonate], the solubility in alcohol (Solubility) is reported as “soluble”, the solubility in water (Solubility) is reported as “insoluble” and the “% increase (percent variation of hematic flow, left vertebral arteria)” value (vertebral arteria) is reported as 29.0%. The LD50 [1] was 900 mg/kg, the “Toxicity (Gleason)” value [1] was “modest” and the Max. conc. time [2] was 480 min.

With `CC[C@]12CCCN3CCc4c(n(c5ccccc45)[C@@](O)(C(=O)OC)C1)[C@@H]32` [Example 9.a, Vincamine clofibrate (2-(p-chlorophenoxy)-2-methylpropionate)] the solubility in alcohol (Solubility) was “soluble”, the solubility in water (Solubility) was “insoluble” and the “% increase (percent variation of hematic flow, left vertebral arteria)” value (vertebral arteria) was 22.1%. For the same compound, the LD50 [1] was 900 mg/kg, the “Toxicity (Gleason)” value [1] was “modest” and the Max. conc. time [2] was 480 min.

For `CC[C@@]12C=C(C(=O)OC)n3c4c(c5ccccc53)CCN(CCC1)[C@H]42` [Example 9.b, Apovincamine clofibrate], the solubility in alcohol (Solubility) was “soluble”, the solubility in water (Solubility) was “insoluble” and the “% increase (percent variation of hematic flow, left vertebral arteria)” value (vertebral arteria) was 28.3%. For the same compound, the LD50 [1] was 800 mg/kg, the “Toxicity (Gleason)” value [1] was “light” and the Max. conc. time [2] was 480 min.

With `CC[C@]12CCCN3CCc4c(n(c5ccccc45)[C@@](O)(C(=O)OC)C1)[C@@H]32` [Example 10.a] the solubility in alcohol (Solubility) was “insoluble”, the solubility in water (Solubility) was “insoluble” and the “% increase (percent variation of hematic flow, left vertebral arteria)” value (vertebral arteria) was 27.9%. The LD50 [1] was 1300 mg/kg, the “Toxicity (Gleason)” value [1] was “light” and the Max. conc. time [2] was 240 min.

With `CC[C@@]12C=C(C(=O)OC)n3c4c(c5ccccc53)CCN(CCC1)[C@H]42` [Example 10.b, Apovincamine pivalate] the solubility in alcohol (Solubility) was “soluble”, the solubility in water (Solubility) was “insoluble” and the “% increase (percent variation of hematic flow, left vertebral arteria)” value (vertebral arteria) was 31.4%. For the same compound, the LD50 [1] was 750 mg/kg, the “Toxicity (Gleason)” value [1] was “modest” and the Max. conc. time [2] was 480 min.

With `CC[C@]12CCCN3CCc4c(n(c5ccccc45)[C@@](O)(C(=O)OC)C1)[C@@H]32` [Example 11.a, Vincamine 4-acetamidobutyrate] the solubility in alcohol (Solubility) was “insoluble”, the solubility in water (Solubility) was “insoluble” and the “% increase (percent variation of hematic flow, left vertebral arteria)” value (vertebral arteria) was 29.3%. For the same compound, the LD50 [1] was 700 mg/kg, the “Toxicity (Gleason)” value [1] was “modest” and the Max. conc. time [2] was 480 min.

For `CC[C@@]12C=C(C(=O)OC)n3c4c(c5ccccc53)CCN(CCC1)[C@H]42` [Example 11.b, Apovincamine 4-acetamidobutyrate], the solubility in alcohol (Solubility) was “insoluble”, the solubility in water (Solubility) was “insoluble” and the “% increase (percent variation of hematic flow, left vertebral arteria)” value (vertebral arteria) was 33.0%. The LD50 [1] was 1500 mg/kg, the “Toxicity (Gleason)” value [1] was “light” and the Max. conc. time [2] was 480 min.

With `CC[C@]12CCCN3CCc4c(n(c5ccccc45)[C@@](O)(C(=O)OC)C1)[C@@H]32` [Example 12.a, Vincamine furoate (furan-2-carboxylate)] the solubility in alcohol (Solubility) was “insoluble”, the solubility in water (Solubility) was “insoluble” and the “% increase (percent variation of hematic flow, left vertebral arteria)” value (vertebral arteria) was 24.8%. The LD50 [1] was 800 mg/kg, the “Toxicity (Gleason)” value [1] was “modest” and the Max. conc. time [2] was 120 min.

In the case of `CC[C@]12CCCN3CCc4c(n(c5ccccc45)[C@@](O)(C(=O)OC)C1)[C@@H]32` [Example 13.a, Vincamine D(+)-camphorsulfonate], the solubility in alcohol (Solubility) is reported as “poorly soluble”, the “solubility in the common (organic) solvents” value (shortened to “solubility in the common”) (Solubility) is reported as “insoluble” and the solubility in water (Solubility) is reported as “soluble”. The “% increase (percent variation of hematic flow, left vertebral arteria)” value (vertebral arteria) was 30.1%, the LD50 [1] was 1350 mg/kg and the “Toxicity (Gleason)” value [1] was “light”. The Max. conc. time [2] was 60 min.

For `CC[C@]12CCCN3CCc4c(n(c5ccccc45)[C@@](O)(C(=O)OC)C1)[C@@H]32` [Example 14.a, Vincamine L(+)-O,O-dibenzoyltartrate], the solubility in alcohol (Solubility) was “poorly soluble”, the “solubility in the common” value (Solubility) was “insoluble” and the solubility in water (Solubility) was “poorly soluble”. The “% increase (percent variation of hematic flow, left vertebral arteria)” value (vertebral arteria) was 29.6%, the LD50 [1] was 950 mg/kg and the “Toxicity (Gleason)” value [1] was “modest”. The Max. conc. time [2] was 60 min.

In the case of `CC[C@@]12C=C(C(=O)OC)n3c4c(c5ccccc53)CCN(CCC1)[C@H]42` [Example 14.b, Apovincamine L(+)-O,O-dibenzoyltartrate], the solubility in alcohol (Solubility) is reported as “soluble”, the “% increase (percent variation of hematic flow, left vertebral arteria)” value (vertebral arteria) is reported as 31.0% and the LD50 [1] is reported as 1500 mg/kg. The “Toxicity (Gleason)” value [1] was “light” and the Max. conc. time [2] was 120 min.

With `CC[C@@]12C=C(C(=O)OC)n3c4c(c5ccccc53)CCN(CCC1)[C@H]42` [Example 15.b, Apovincamine nicotinate] the solubility in alcohol (Solubility) was “insoluble”, the solubility in water (Solubility) was “insoluble” and the “% increase (percent variation of hematic flow, left vertebral arteria)” value (vertebral arteria) was 28.3%. The LD50 [1] was 750 mg/kg, the “Toxicity (Gleason)” value [1] was “modest” and the Max. conc. time [2] was 60 min.

In the case of `CC[C@]12CCCN3CCc4c(n(c5ccccc45)[C@@](O)(C(=O)OC)C1)[C@@H]32` [Example 16.a, Vincamine acetylsalicylate], the “solubility in the common” value (Solubility) is reported as “poorly soluble”, the “% increase (percent variation of hematic flow, left vertebral arteria)” value (vertebral arteria) is reported as 31.7% and the LD50 [1] is reported as 900 mg/kg. The “Toxicity (Gleason)” value [1] was “modest” and the Max. conc. time [2] was 20 min.
